Where no end group is shown, it is not given here.

The subject of one test is Notch2NRR. The experiment in a line: Spot phage ELISA, Notch2NRR. The class given is binding, human. The following applies: for S/N: spot phage ELISA on Notch2NRR, signal-to-noise ratio of phage-displayed DCP clone; for ELISA: spot phage ELISA signal of phage-displayed DCP clone on Notch2NRR.
In the next test the test system is PCSK9ΔCRD (PCSK9dCRD). It is filed as binding, human. Conditions: for S/N: ratio of signal for target protein over BSA background; for ELISA: spot phage ELISA signal, DCP displayed on M13 p8. On the technique in general: ELISA stands for enzyme-linked immunosorbent assay.
The subject of a further test is Fz7CRD-Fc. The class given is binding. The following applies: for S/N: ratio of signal for target protein over BSA background; for ELISA: spot phage ELISA signal, DCP displayed on M13 p8.

Take “AFDCLGQCGRCDFHKLQCIWSNRNYPYCNSSCTR (disulfide (positions not given here)) [AVR9 3]”: in the test with Notch2NRR, the S/N was 47.3 and the ELISA was 3.31.

For the sequence “AFDCLGQCGRCDFHKLQCVFRSWQHYMYCNSSCTR (also: bicyclic or more (positions not given here)) [PCSK9dCRD AVR9 39]”, in the test with PCSK9ΔCRD (PCSK9dCRD), the S/N is reported as 9.1 and the ELISA is 2.46.

As to “AFDCLGQCGRCDFHKLQCVGKFRSFQDYQYCNSSCTR (also: bicyclic or more (positions not given here)) [PCSK9dCRD AVR9 18]”, in the test with PCSK9ΔCRD (PCSK9dCRD), the S/N amounted to 28.6 and the ELISA was determined as 2.52.

For the sequence “AFDCLGQCGRCDFHKLQCVHSNRNSFYCNSSCTR (disulfide (positions not given here)) [AVR9 7]”, in the test on Notch2NRR, the S/N stood at 43.6 and the ELISA was determined as 3.23.

Consider “AFDCLGQCGRCDFHKLQCVNIEYYRDWDHYQYCNSSCTR (also: bicyclic or more (positions not given here)) [PCSK9dCRD AVR9 82]”, for which, in the test on PCSK9ΔCRD (PCSK9dCRD), the S/N is listed as 27.6 and the ELISA is reported as 2.13.

As for “AFDCLGQCGRCDFHKLQCVPYSWTYKQYCNSSCTR (disulfide (positions not given here)) [AVR9 9]”, in the test with Notch2NRR, the S/N is 35.7 and the ELISA stood at 2.57.

Consider “AFDCLGQCGRCDFHKLQCVSSNRNTPYCNSSCTR (disulfide (positions not given here)) [AVR9 5]”, for which, in the test on Notch2NRR, the S/N came to 45.8 and the ELISA stood at 3.31.

Take “AFDCLGQCGRCDFHKLQCVVGWASMRNYCNSSCTR (disulfide (positions not given here)) [AVR9 8]”: in the test on Notch2NRR, the S/N was 42.0 and the ELISA stood at 3.14.

With “AFDCLGQCGRCDFHKLQCVWGNRNSSYCNSSCTR (disulfide (positions not given here)) [AVR9 6]”, in the test on Notch2NRR, the S/N came out at 35.2 and the ELISA is on record as 3.28.

As to “AFDCLGQCGRCDFHKLQCVWQTWQHYQYCNSSCTR (also: bicyclic or more (positions not given here)) [PCSK9dCRD AVR9 69]”, in the test on PCSK9ΔCRD (PCSK9dCRD), the S/N came to 23.5 and the ELISA is 2.51.

Regarding “AFDCLGQCGRCDFHKLQCVWQTWSAYLYCNSSCTR (also: bicyclic or more (positions not given here)) [PCSK9dCRD AVR9 80]”, in the test on PCSK9ΔCRD (PCSK9dCRD), the S/N is listed as 2.9 and the ELISA is listed as 2.10.

Regarding “AFDCLGQCGRCDFHKLQCVWSNRHSPYCNSSCTR (disulfide (positions not given here)) [AVR9 4]”, in the test on Notch2NRR, the S/N amounted to 39.3 and the ELISA was determined as 3.31.

On to “AFDCLGQCGRCDFHKLQCVWSNRNSLYCNSSCTR (disulfide (positions not given here)) [AVR9 1]”, for which, in the test on Notch2NRR, the S/N came to 2.0 and the ELISA stood at 3.42.

Regarding “AFDCLGQCGRCDFHKLQCVWSNRNSPYCNSSCTR (disulfide (positions not given here)) [AVR9 2]”, in the test on Notch2NRR, the S/N worked out at 44.7 and the ELISA is 3.32.

Take “AFDCLGQCGRCDFHKLQCVWTSWGDYIKYGAYCNSSCTR (also: bicyclic or more (positions not given here)) [PCSK9dCRD AVR9 94]”: in the test on PCSK9ΔCRD (PCSK9dCRD), the S/N is 10.9 and the ELISA worked out at 2.09.

Take “AFDCLGQCGRCDFHKLQCVYESYAHYQYCNSSCTR (also: bicyclic or more (positions not given here)) [PCSK9dCRD AVR9 54]”: in the test with PCSK9ΔCRD (PCSK9dCRD), the S/N is recorded as 23.7 and the ELISA is on record as 1.59.

On to “AFDCLGQCGRCDFHKLQCVYKDWGHYLYCNSSCTR (also: bicyclic or more (positions not given here)) [PCSK9dCRD AVR9 34]”, for which, in the test on PCSK9ΔCRD (PCSK9dCRD), the S/N is on record as 24.0 and the ELISA was determined as 1.80.

With “AFDCLGQCGRCDFHKLQCVYKTWQDYQYCNSSCTR (also: bicyclic or more (positions not given here)) [PCSK9dCRD AVR9 53]”, in the test with PCSK9ΔCRD (PCSK9dCRD), the S/N worked out at 36.1 and the ELISA was found to be 2.49.

As to “AFDCLGQCGRCDFHKLQCVYQDWAHYVYCNSSCTR (also: bicyclic or more (positions not given here)) [PCSK9dCRD AVR9 44]”, in the test on PCSK9ΔCRD (PCSK9dCRD), the S/N is listed as 27.7 and the ELISA is 2.19.

In the case of “GCGWLPELKLWCKQDSDCLAGCVCEDMIDCG (also: bicyclic or more (positions not given here)) [Fz7CRD-Fc EET I-II 42]”, in the test with Fz7CRD-Fc, the S/N is 36.2 and the ELISA is listed as 2.79.

In the case of “GCGWWFKQWFCKQDSDCLAGCVCGPNGFCG (also: bicyclic or more (positions not given here)) [Fz7CRD-Fc EET I-II 19]”, in the test on Fz7CRD-Fc, the S/N came out at 3.8 and the ELISA amounted to 1.83.

As to “GCGYWYITWFCKQDSDCLAGCVCGPNGFCG (also: bicyclic or more (positions not given here)) [Fz7CRD-Fc EET I-II 30]”, in the test with Fz7CRD-Fc, the S/N stood at 3.0 and the ELISA was 2.64.

Consider “GCKLMRQRCKQDSDCLAGCVCTQQWWCG (disulfide (positions not given here)) [N2N-EET-94]”, for which, in the test on Notch2NRR, the S/N was 36.3 and the ELISA stood at 3.52.

On to “GCNGQRRPWGRWCKQDSDCLAGCVCGPNGFCG (disulfide (positions not given here)) [N2N-EET-33-P1]”, for which, in the test with Notch2NRR, the S/N is 11.9 and the ELISA is given as 2.39.

As to “GCTLMRTRCKQDSDCLAGCVCEHIYWCG (disulfide (positions not given here)) [N2N-EET-n19]”, in the test with Notch2NRR, the S/N was determined as 12.8 and the ELISA stood at 3.16.

With “GCTLYMYLCKQDSDCLAGWMFHHCG [Fz7CRD-Fc EET I-II 26]”, in the test on Fz7CRD-Fc, the S/N came to 28.9 and the ELISA stood at 1.79.

Consider “GCTLYMYLCKQDSDCLAGWMFHHCG [Fz7CRD-Fc EET I-II 55]”, for which, in the test with Fz7CRD-Fc, the S/N is 29.3 and the ELISA is 2.81.

With “GCVHVIREWWCKQDSDSSWFVCGPNGFCG [Fz7CRD-Fc EET I-II 17]”, in the test with Fz7CRD-Fc, the S/N is 26.4 and the ELISA is 2.69.

In the case of “GPTQSAFGECGGIGYSGPTVCASGTTCQVLSPMFSFCLPGAS (also: bicyclic or more (positions not given here)) [Fz7CRD-Fc CBD 57]”, in the test on Fz7CRD-Fc, the S/N was 28.7 and the ELISA amounted to 2.41.

Turning to “GPTQSAFGECGGIGYSGPTVCASGTTCQVLSPYWSFCLPGAS (also: bicyclic or more (positions not given here)) [Fz7CRD-Fc CBD 15]”, in the test on Fz7CRD-Fc, the S/N is given as 38.4 and the ELISA came to 2.76.

As for “GPTQSAGGWCGGIGYSGPTVCASGTTCQVLTPMESICLPGAS (also: bicyclic or more (positions not given here)) [Fz7CRD-Fc CBD 29]”, in the test with Fz7CRD-Fc, the S/N is recorded as 5.7 and the ELISA is reported as 0.36.

As to “GPTQSAWGWCGGIGYSGPTVCASGTTCQVLSPYESYCLPGAS (also: bicyclic or more (positions not given here)) [Fz7CRD-Fc CBD 53]”, in the test with Fz7CRD-Fc, the S/N came out at 4.3 and the ELISA came out at 0.32.

“GPTQSHYGQCGGAGYWGRWICSGTTCQPLPQSKSQCLPGAS (disulfide (positions not given here)) [CBD 1]”: in the test on Notch2NRR, the S/N turned out to be 38.2 and the ELISA was 3.79.

For the sequence “GPTQSHYGQCGGEGYWGRWICSGTTCQPYNTHFSQCLPGAS (disulfide (positions not given here)) [CBD 2]”, in the test on Notch2NRR, the S/N was determined as 28.5 and the ELISA is reported as 3.05.

Take “GPTQSHYGQCGGFGYWGMRHCSGTTCQWQHLPSQ CLPGAS (disulfide) [CBD 3]”: in the test on Notch2NRR, the S/N is reported as 36.6 and the ELISA is 3.00.

As for “GPTQSHYGQCGGQGYWGMRHCSGTTCQWGAKGPSQCLPGAS (disulfide (positions not given here)) [CBD 4]”, in the test with Notch2NRR, the S/N came to 33.1 and the ELISA was determined as 3.68.

As to “GPTQSHYGQCGGTGYWGMRNCSGTTCQRFAPQNSQCLPGAS (disulfide (positions not given here)) [CBD 5]”, in the test with Notch2NRR, the S/N is given as 47.2 and the ELISA is on record as 3.59.

Turning to “GPTQSIWGECGGIGYSGPTVCASGTTCQVLTPFYSFCLPGAS (also: bicyclic or more (positions not given here)) [Fz7CRD-Fc CBD 14]”, in the test on Fz7CRD-Fc, the S/N is listed as 15.7 and the ELISA came to 1.18.

Regarding “GPTQSKYGVCGGIGYSGPTVCASGTTCQVLYPGYSLCLPGAS (also: bicyclic or more (positions not given here)) [Fz7CRD-Fc CBD 72]”, in the test with Fz7CRD-Fc, the S/N is 37.9 and the ELISA turned out to be 2.80.

With “GPTQSLWGECGGIGYSGPTVCASGTTCQVLSPEYSFCLPGAS (also: bicyclic or more (positions not given here)) [Fz7CRD-Fc CBD 18]”, in the test with Fz7CRD-Fc, the S/N was determined as 16.4 and the ELISA was 1.75.

“GPTQSMFGECGGIGYSGPTVCASGTTCQVLSPFYSFCLPGAS (also: bicyclic or more (positions not given here)) [Fz7CRD-Fc CBD 47]”: in the test with Fz7CRD-Fc, the S/N came out at 30.4 and the ELISA was determined as 2.59.

Regarding “GPTQSMWGECGGIGYSGPTVCASGTTCQVLSPFYSFCLPGAS (also: bicyclic or more (positions not given here)) [Fz7CRD-Fc CBD 56]”, in the test with Fz7CRD-Fc, the S/N turned out to be 3.7 and the ELISA came to 0.27.

“GPTQSVYGYCGGIGYSGPTVCASGTTCQVLFPGHSFCLPGAS (also: bicyclic or more (positions not given here)) [Fz7CRD-Fc CBD 23]”: in the test on Fz7CRD-Fc, the S/N came to 20.9 and the ELISA is 2.78.

As for “GPTQSWFGQCGGIGYSGPTVCASGTTCQVLVPDMSFCLPGAS (also: bicyclic or more (positions not given here)) [Fz7CRD-Fc CBD 87]”, in the test with Fz7CRD-Fc, the S/N came to 32.0 and the ELISA is given as 2.66.

The values are drawn from PMC10977697 (PLOS ONE, 2024).
